Data from the NIST ThermoML archive (doi:10.1016/j.fluid.2006.10.027).

Assay: xn = mol fraction of the nth substance listed
Details: 101 kPa, Liquid, Capillary tube (Ostwald / Ubbelohde) method, x1 = 0.38

CC(C)C(=O)O [2-methylpropanoic acid] + O
Details | viscosity [mPa·s]
300.25 K | 2.21
300.33 K | 2.205
300.36 K | 2.204
300.49 K | 2.197
300.61 K | 2.19
300.66 K | 2.187
300.76 K | 2.182
300.87 K | 2.176
300.96 K | 2.171
301.09 K | 2.164
301.16 K | 2.16
301.26 K | 2.154
301.36 K | 2.149
301.49 K | 2.142
301.56 K | 2.138
301.85 K | 2.122
302.16 K | 2.105
302.46 K | 2.088
